Values joined by “and” are separate entries in the source; they are usually repeats but may differ in a detail not shown here. Equal entries are not always repeated.

The term IC50 denotes the concentration that gives 50% inhibition.

Assay [1] concerns the target T1, THERMINATOR™ DNA polymerase (Thermococcus sp., UniProt Q56366, A485L/D141A/E143A).
T1 construct: purchased New England Biolabs
Kind of assay: biochemical. Also noted: species or system Thermococcus species 9° N-7. The settings on record: IC50 for incorporation, concentration at which the compound incorporates on half the primer-template complexes; complement template base. As for the experimental part:
Natural and modified nucleotides were tested for incorporation efficiency using the “polymerase end point assay” (Wu et al., 2007, which is incorporated herein by reference). This assay examines incorporation efficiency on matched and mismatched template bases. Incorporation efficiency is measured by determining the concentration at which the compound incorporates on half the primer-template complexes (IC50). Titrations of increasing compound concentration were performed to generate curves from which the IC50 can be determined.
The sequence of the template DNA is selected depending on which compound will be tested. For example, the first interrogation base after the primer in the template sequence is the complement base of the compound when measuring incorporation efficiency, and one of three mismatched bases when measuring mismatch discrimination properties.
(§1) To the annealed reaction, a DNA polymerase (e.g., THERMINATOR™ DNA polymerase, 0.25 units per reaction, New England Biolabs), 1× Thermopol Buffer, and a known concentration of either natural or modified nucleotide are added to each 10 μL reaction and incubated at 75° C. for 10 minutes, cooled on ice, and quenched with 10 μL of stop solution (98% formamide: 10 mM Na2EDTA, pH=8.0, 25 mg/ml Blue Dextran). Stopped reactions are heated to 75° C. for 30 seconds to denature the DNA, and then placed on ice. The extension products are analyzed on a 10% Long Ranger (Lonza) polyacrylamide gel using an ABI model 377 DNA sequencer. Additional details are provided in Example 1, below.
Polymerase Assays. Natural and modified nucleotides were tested for incorporation efficiency using the “polymerase end point assay” (Wu et al., 2007, which is incorporated herein by reference). This assay examines incorporation efficiency on matched and mismatched template bases. Incorporation efficiency is measured by determining the concentration at which the compound incorporates on half the primer-template complexes (IC50). Titrations of increasing compound concentration were performed to generate curves from which the IC50 can be determined.
The assay is performed by first annealing 5 nM of BODIPY-FL labeled primer with 40 nM template DNA in 1× Thermopol Buffer (20 mM Tris-HCl, pH 8.8; 10 mM (NH4)2SO4; 10 mM KCl; 2 mM MgSO4; 0.1% Triton X-100, New England BioLabs).
The temperature cycle to complete primer annealing is 80° C. for 30 seconds, 57° C. for 30 seconds, then cooling to 4° C. The sequence of the template DNA is selected depending on which compound will be tested. For example, the first interrogation base after the primer in the template sequence is the complement base of the compound when measuring incorporation efficiency, and one of three mismatched bases when measuring mismatch discrimination properties.
as §1, with “sequencer.” for “sequencer. Additional details are provided in Example 1, below.”

The nature of assay [2]: UV-cleavage of incorporated nucleotide analogs with 365 nm light. The settings on record: 365 nm UV light, 50 mM NaN3; time at which half the incorporated analog is cleaved. The protocol:
Cleavage of the terminating substituted 2-nitrobenzyl group when analogs are incorporated into the primer strand with 365 nm UV light allows for the next cycle of incorporation to resume. Without being bound by theory, at least two factors were found typically influence UV-cleavage rates of incorporated nucleotide analogs: a) stereo-chemistry of the α-carbon substitution of the 2-nitrobenzyl group, and b) substitution on the benzyl ring. Incorporation on a matched template is performed as described above using 1 μM concentration to extend the primer strand. Ten identical tubes are used for each incorporation experiment, after which NaN3 is added to a final concentration of 50 mM. Extended primer reactions are exposed to 365 nm light for various time points using the UV deprotector device described by Wu et al. (2007, which is incorporated herein by reference) and analyzed using an AB model 377 DNA sequencer. The quantitative data are plotted linearly as product formation versus exposure time, and the time point at which half the nucleotide analog is cleaved is calculated, as a DT50 value. […] For example, based on these examples, the ds2 analogs show faster cleavage rates (e.g., lower DT50 values) compared with ds1 analogs. Furthermore, substitution of a methoxy group at the 4 position on the benzyl ring further increases the rate of UV-cleavage, albeit for ds2 analogs only (e.g., the DT50 value for 5p098-ds2 is […] versus that of 1.9 sec for 6p087-ds2). Based on the examples summarized in Table 3, substitution at the α-carbon of the 2-nitrobenzyl ring increases UV-cleavage in a stereospecific manner.

Assay [3] in a line: chemical cleavage by palladium-catalysed hydrogenolysis. The settings on record: hydrogen, ethanol, room temperature; for time to complete cleavage to thymidine: heterogenous catalyst, palladium on activated carbon (10 wt. %), TLC/HPLC. The protocol:
Chemical Cleavage Using Heterogenous Palladium Catalyst: To a solution of 5-(benzyloxy)methyl-2′-deoxyuridine (29 mg, 0.082 mmol) in absolute ethanol (2 mL) under a nitrogen atmosphere was added 10 mg of palladium on activated carbon (10 wt. %, 10 mg) (CAUTION: flammable solid! Ensure handling in oxygen-free atmosphere). The mixture was flushed with hydrogen gas and stirred at room temperature for 30 minutes while being monitored by TLC every five minutes. The mixture was filtered, concentrated under reduced pressure, and dried under vacuum to yield thymidine (18 mg, 88%) that was identified by comparison to the authentic sample (TLC and ^1H NMR).
Chemical Cleavage Using Homogenous Palladium Catalyst: To a solution of 5-(benzyloxy)methyl-2′-deoxyuridine (3.48 mg, 0.01 mmol) in absolute ethanol (0.1 mL) under a nitrogen atmosphere a solution of sodium tetrachloropalladate (II) (0.6 mg, 0.002 mmol) in absolute ethanol (0.9 mL) was added. The mixture was flushed with hydrogen gas and stirred at room temperature while being monitored by TLC every five minutes. After 20 minutes TLC indicated complete disappearance of starting material. The sole cleavage product was identified to be thymidine by comparison to the authentic sample on TLC.
(§2) Chemical Cleavage Using Heterogenous Palladium Catalyst: To a solution of 5-(2-isopropylbenzyloxy)methyl-2′-deoxyuridine in absolute ethanol (10 mM, 1 mL) under a nitrogen atmosphere was added of palladium on activated carbon (10 wt. %, 2 mg) (CAUTION: flammable solid! Ensure handling in oxygen-free atmosphere). The mixture was flushed with hydrogen gas and stirred at room temperature for five minutes while being monitored by TLC every one minute. After five minutes TLC indicated complete disappearance of starting material. The sole cleavage product was identified to be thymidine by comparison to the authentic sample on TLC.
as §2, with “To” for “To a”, “5-(2-phenylbenzyloxy)methyl-2′-deoxyuridine” for “5-(2-isopropylbenzyloxy)methyl-2′-deoxyuridine”, “added” for “added of”, “1” for “one”
as §2, with “5-(2,6-dimethylbenzyloxy)methyl-2′-deoxyuridine” for “5-(2-isopropylbenzyloxy)methyl-2′-deoxyuridine”, “added” for “added of”, “1” for “one”
To a solution of 5-benzyloxy-2′-deoxyuridine (10 mg) in ethanol (1 mL) was added Pd/C (10%, 10 mg), and the mixture was stirred for five minutes. Hydrogen was introduced to the system via a balloon and the reaction mixture was stirred at room temperature. Aliquots (5 μL) were taken out from the reaction mixture at various time point intervals and were analyzed by thin layer chromatography and HPLC. Complete cleavage to thymidine was observed after ten minutes at room temperature (Scheme 42 and FIG. 4). The intermediate of the cleavage was identified to be 5-hydroxymethyl-dU generated from initial removal of benzyl group, and HOMedU was further reduced to thymidine. […]

T1 sequence (Q56366 whole entry D141A/E143A/A485L): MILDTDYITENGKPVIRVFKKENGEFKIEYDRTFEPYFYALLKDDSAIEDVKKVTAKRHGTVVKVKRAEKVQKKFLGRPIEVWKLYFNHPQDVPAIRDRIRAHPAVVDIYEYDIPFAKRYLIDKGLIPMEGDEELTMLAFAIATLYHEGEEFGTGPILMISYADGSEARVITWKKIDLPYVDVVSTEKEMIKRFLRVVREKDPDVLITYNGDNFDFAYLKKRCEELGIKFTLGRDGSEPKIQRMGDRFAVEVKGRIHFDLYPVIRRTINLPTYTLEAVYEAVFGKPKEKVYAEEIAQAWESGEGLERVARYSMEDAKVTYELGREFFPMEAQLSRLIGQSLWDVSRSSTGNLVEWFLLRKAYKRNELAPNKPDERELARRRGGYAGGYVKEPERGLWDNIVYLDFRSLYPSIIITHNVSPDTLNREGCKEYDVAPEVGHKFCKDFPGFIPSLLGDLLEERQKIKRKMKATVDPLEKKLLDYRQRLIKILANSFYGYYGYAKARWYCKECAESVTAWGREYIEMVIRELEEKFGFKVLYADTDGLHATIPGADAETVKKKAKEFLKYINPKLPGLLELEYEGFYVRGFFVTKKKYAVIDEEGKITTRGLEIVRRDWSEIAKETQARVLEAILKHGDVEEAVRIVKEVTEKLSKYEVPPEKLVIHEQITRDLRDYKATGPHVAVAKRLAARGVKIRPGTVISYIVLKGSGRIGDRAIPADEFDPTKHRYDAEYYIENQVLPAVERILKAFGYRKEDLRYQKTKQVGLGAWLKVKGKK

Compound `CC(C)C(OCc1cn([C@H]2C[C@H](O)[C@@H](COP(=O)(O)OP(=O)(O)OP(=O)(O)O)O2)c2ncnc(N)c12)c1ccccc1[N+](=O)[O-]` (single isomer, unassigned) [5p098-ds1, 7-[1-(2-nitrophenyl)-2-methyl-propyloxy]methyl-7-deaza-2′-deoxyadenosine-5′-triphosphate] came in with a 50% inhibitory concentration (IC50) in assay [1] of 6.7 ± 0.8 nM. In assay [2], the “DT50” value worked out at 7.5 ± 0.8 s.
For the compound `CC(C)C(OCc1cn([C@H]2C[C@H](O)[C@@H](COP(=O)(O)OP(=O)(O)OP(=O)(O)O)O2)c2ncnc(N)c12)c1ccccc1[N+](=O)[O-]` (single isomer, unassigned) [5p098-ds2, 7-[1-(2-nitrophenyl)-2-methyl-propyloxy]methyl-7-deaza-2′-deoxyadenosine-5′-triphosphate], the concentration for half-maximal inhibition (IC50) in assay [1] was 5.7 ± 1.1 nM. In assay [2], the “DT50” value was 3.3 s and 3.3 ± 0.2 s.
On to `CC(C)C(OCc1cn([C@H]2C[C@H](O)[C@@H](COP(=O)(O)OP(=O)(O)OP(=O)(O)O)O2)c2ncnc(N)c12)c1c([N+](=O)[O-])cccc1[N+](=O)[O-]` (single isomer, unassigned) [6p057-ds1, 7-[1-(2,6-dinitrophenyl)-2-methyl-propyloxy]methyl-7-deaza-2′-deoxyadenosine-5′-triphosphate], for which, in assay [1], half-maximal inhibition (IC50) was put at 5.2 ± 0.2 nM. Further, the “DT50” value in assay [2] is 7.3 ± 1.2 s.
For `CC(C)C(OCc1cn([C@H]2C[C@H](O)[C@@H](COP(=O)(O)OP(=O)(O)OP(=O)(O)O)O2)c2ncnc(N)c12)c1c([N+](=O)[O-])cccc1[N+](=O)[O-]` (single isomer, unassigned) [6p057-ds2, 7-[1-(2,6-dinitrophenyl)-2-methyl-propyloxy]methyl-7-deaza-2′-deoxyadenosine-5′-triphosphate], in that order: 5.8 ± 1.1 nM and 4.8 ± 0.5 s.
The compound `COc1ccc(C(OCc2cn([C@H]3C[C@H](O)[C@@H](COP(=O)(O)OP(=O)(O)OP(=O)(O)O)O3)c3ncnc(N)c23)C(C)C)c([N+](=O)[O-])c1` (single isomer, unassigned) [6p087-ds1, 7-[1-(4-methoxy-2-nitrophenyl)-2-methyl-propyloxy]methyl-7-deaza-2′-deoxyadenosine-5′-triphosphate] returned an IC50 in assay [1] of 15 ± 1 nM. For the same compound, the “DT50” value in assay [2] was found to be 8.8 ± 0.6 s.
Turning to `COc1ccc(C(OCc2cn([C@H]3C[C@H](O)[C@@H](COP(=O)(O)OP(=O)(O)OP(=O)(O)O)O3)c3ncnc(N)c23)C(C)C)c([N+](=O)[O-])c1` (single isomer, unassigned) [6p087-ds2, 7-[1-(4-methoxy-2-nitrophenyl)-2-methyl-propyloxy]methyl-7-deaza-2′-deoxyadenosine-5′-triphosphate], the IC50 in assay [1] was found to be 18 ± 3 nM. For the same compound, the “DT50” value in assay [2] is 1.9 s and 1.9 ± 0.1 s.
As for `CC(C)C(OCc1cn([C@H]2C[C@H](O)[C@@H](CO)O2)c(=O)[nH]c1=O)c1ccccc1` (stereo partly drawn) [5-(1-phenyl-2-methyl-propyloxy)methyl-2′-deoxyuridine], the “time to complete cleavage to thymidine” value in assay [3] was 240 min.
Consider `Cc1cccc(C)c1COCc1cn([C@H]2C[C@H](O)[C@@H](CO)O2)c(=O)[nH]c1=O` [5-(2,6-dimethylbenzyloxy)methyl-2′-deoxyuridine], for which the “time to complete cleavage to thymidine” value in assay [3] is reported as “five”.
`CC(C)c1ccccc1COCc1cn([C@H]2C[C@H](O)[C@@H](CO)O2)c(=O)[nH]c1=O` [5-(2-isopropylbenzyloxy)methyl-2′-deoxyuridine]: in assay [3], the “time to complete cleavage to thymidine” value was “five”.
Regarding `O=c1[nH]c(=O)n([C@H]2C[C@H](O)[C@@H](CO)O2)cc1COCc1ccccc1-c1ccccc1` [5-(2-phenylbenzyloxy)methyl-2′-deoxyuridine], the “time to complete cleavage to thymidine” value in assay [3] is given as “five”.
With `O=c1[nH]c(=O)n([C@H]2C[C@H](O)[C@@H](CO)O2)cc1COCc1ccccc1` [5-(benzyloxy)methyl-2′-deoxyuridine], the “time to complete cleavage to thymidine” value in assay [3] was “ten”. Further, the “time to complete disappearance of starting material (cleavage to thymidine)” value in assay [3] (homogenous catalyst, sodium tetrachloropalladate (II), TLC) came out at 20 min.

(Values after patent publication US9200319B2, “Nucleotides and nucleosides and methods for their use in DNA sequencing” (Lasergen, Inc., priority 2008, dated 2015).)
